Legend:
[1] = test system: T1, human CMG helicase (hCMG); experiment: hCMG helicase fork-unwinding (strand displacement) assay; assay type: biochemical
T1 construct: made in house; host or cells: High Five insect cells, baculovirus (11 viruses co-infected)
Method: The human CMG helicase was purified following the established and validated protocol of Hurwitz and colleagues(19,20), with minor modifications. A detailed description of the approach is shown here, to allow for comparisons to the methods described by the Hurwitz group.
High Five insect cells (2-3 million cells/ml, 1.5 L), were in cultured in a shaking incubator at 27° C. in suspension with ESF921 serum free medium (Expression Systems, CA; cat. #96-001-01), then co-infected for 60 hrs with 11 baculoviruses expressing human 6His2Flag-Cdc45, the human MCM hexamer (Mcm2, Mcm3, Mcm4, Mem5, Mcm6, Mcm7), and human GINS (GST-Sld5, Psf3, Psf2, and Psf1). Each virus was infected at an MOI of ~10 from individual virus stocks. Infected cells were harvested by centrifugation at 650×g for 5 min at 4° C., washed with cold PBS, frozen on dry ice, and stored at −80° C. until use. The cell pellet (~20 mL) was thawed on ice, resuspended in 45 ml Hypotonic Buffer [20 mM Hepes-NaOH (pH 7.5), 5 mM KCl, 1.5 mM MgCl2] with protease inhibitors (1 mM [COMPOUND LEFT OUT], 1 mM Benzamidine, 0.15 μM Aprotinin, 4 μM Leupeptin, and 1 μM Antipain), and kept on ice for 10 min before lysing by Dounce homogenization (tight fitting, 60 strokes). The cell extract was adjusted to 0.42 M potassium acetate and centrifuged at 43,000×g for 1 hr at 4° C. The cleared lysate was mixed with 0.75 ml glutathione beads (cat. #17-0756-05; GE Healthcare) pre-equilibrated with FEQ buffer [20 mM Hepes-NaOH (pH 7.5), 0.42 M potassium acetate, 5 mM KCl, 1.5 mM MgCl2] and incubated by rotation at 4° C. overnight. Following centrifugation at 290×g at 4° C., the bound glutathione beads were washed four times (15 min each wash) with 40 ml of FW buffer [20 mM Hepes-NaOH (pH 7.5), 0.42 M potassium acetate, 1 mM DTT, 1 mM EDTA, 0.01% NP40, 10% glycerol (vol/vol) with protease inhibitors as above] containing protease inhibitors (as above). Bound proteins were eluted at 4° C. three times (1 hr each elution) with 3.5 ml Q buffer [20 mM Hepes-NaOH (pH 7.5), 1 mM DTT, 1 mM EDTA, 0.01% NP40, 10% glycerol (vol/vol), and protease inhibitors as above] containing 0.15 M potassium acetate and 20 mM reduced glutathione. The eluted fractions were combined and applied to a HiTrap Q-Sepharose FF column (HiTrap Q FF 1 mL, cat. #17505301, Cytiva), pre-equilibrated 3× with 5 ml of Q buffer containing 0.15 M, 0.75 M, 0.15M potassium acetate, in sequence. The Q-Sepharose FF column was washed with 10 ml of FW buffer containing protease inhibitors (as above). The proteins were eluted with 10 ml of Q buffer containing 0.75 M potassium acetate. The eluted fraction was mixed with 0.15 ml of anti-Flag M2 affinity gel/beads and incubated while rotating at 4° C. overnight. After centrifugation at 290×g for 5 min at 4° C., the beads were washed three times with 10 ml PreScission buffer [50 mM Tris-HCl (pH 7.5), 0.15 M NaCl, 1 mM DTT, 1 mM EDTA] for 15 min at 4° C., and eluted at 4° C. three times (1 hr each elution) with 0.2 ml PreScission enzyme buffer containing 0.2 mg/ml 3×-Flag peptides. The combined eluates were incubated with 20 Units of PreScission Protease (GE Healthcare) and 0.1 mL glutathione beads for 4 hr at 4° C. The supernatant was layered onto a 15-40% glycerol gradient [25 mM Tris-HCl (pH 7.5), 50 mM NaCl, 1 mM DTT, 1 mM EDTA, 0.01% NP40, protease inhibitors as above] in a 5 mL ultra-centrifugation tube and centrifuged at 260,000×g for 14 hr at 4° C. Glycerol fractions (0.15 mL each fraction) were collected from bottom of tube and stored at −80° C. until use. Typically, fractions 6-9 contained complete hCMG (~750-800 kDa) and co-migrated with thyroglobulin.
Helicase fork-unwinding assays were performed at 37° C. for 1 hr in 20 μL reaction volumes using 2-4 μl of hCMG (~15-30 fmol), in a buffer consisting of 25 mM Hepes-NaOH (pH 7.5), 5 mM NaCl, 0.5 mM ATP, 10 mM magnesium acetate, 1 mM DTT, 0.1 mg/ml bovine serum albumin (BSA), and ~10 fmol of radiolabeled DNA forks (20). […]

human Topoisomerase-II = experiment: Topoisomerase II decatenation assay; assay type: biochemical
Method: The Topoisomerase II drug screening kit (kDNA-based; TopoGEN, TG1009-1A) was used to assess in vitro Topo II enzyme activity according to the manufacture protocol. Assays were performed in […] reactions with 4 μL of 5× Assay Buffer (0.25 M Tris-HCl (pH 8), 10 mM ATP, 0.75 M NaCl, 50 mM MgCl2, 2.5 mM Dithiothreitol, 150 mg/ml BSA), 1 mL kDNA ([…]), 1 mL DMSO solvent or compounds at indicated concentrations, 1 mL Topoisomerase II (2 Units), 13 mL water. Assays were incubated at 37° C. for 30 min and stopped by addition of 2 mL 10% SDS and Proteinase K (50 mg/ml). After incubating at 37° C. for 15 min, samples were mixed with 1/10 volume of loading buffer and resolved on a 1% agarose gel.

HaCaT cells = experiment: BrdU labeling of DNA replication in synchronized HaCaT cells; assay type: cell-based, human; details: for DNA replication (BrdU), early G1 treatment: added at time 0, 15 μM; for DNA replication (BrdU), early S-phase treatment: treated at 18 hrs, analyzed 3 hrs later, CA1/novobiocin 15 μM, etoposide 5 μM
Method: Verification of synchronization and determination of drug effects was performed by measuring the incorporation of bromo-deoxyuridine (BrdU) into replicating foci within nuclei. At times indicated, cells were pulse-labeled with 15 μM BrdU for 30 min, fixed with 4% paraformaldehyde, and analyzed by standard immunofluorescent techniques(40,51) with an anti-BrdU monoclonal antibody (Roche, clone no. BMC9318, RRID:AB_2313622). The average counts of three fields of 100 or more cells were used to determine the percentages of BrdU-labeled nuclei, +/−1 s.d.

[2] = test system: solid tumor cell lines (NCI-60 set); details: cited from earlier work

T1 sequence (P49736 whole entry): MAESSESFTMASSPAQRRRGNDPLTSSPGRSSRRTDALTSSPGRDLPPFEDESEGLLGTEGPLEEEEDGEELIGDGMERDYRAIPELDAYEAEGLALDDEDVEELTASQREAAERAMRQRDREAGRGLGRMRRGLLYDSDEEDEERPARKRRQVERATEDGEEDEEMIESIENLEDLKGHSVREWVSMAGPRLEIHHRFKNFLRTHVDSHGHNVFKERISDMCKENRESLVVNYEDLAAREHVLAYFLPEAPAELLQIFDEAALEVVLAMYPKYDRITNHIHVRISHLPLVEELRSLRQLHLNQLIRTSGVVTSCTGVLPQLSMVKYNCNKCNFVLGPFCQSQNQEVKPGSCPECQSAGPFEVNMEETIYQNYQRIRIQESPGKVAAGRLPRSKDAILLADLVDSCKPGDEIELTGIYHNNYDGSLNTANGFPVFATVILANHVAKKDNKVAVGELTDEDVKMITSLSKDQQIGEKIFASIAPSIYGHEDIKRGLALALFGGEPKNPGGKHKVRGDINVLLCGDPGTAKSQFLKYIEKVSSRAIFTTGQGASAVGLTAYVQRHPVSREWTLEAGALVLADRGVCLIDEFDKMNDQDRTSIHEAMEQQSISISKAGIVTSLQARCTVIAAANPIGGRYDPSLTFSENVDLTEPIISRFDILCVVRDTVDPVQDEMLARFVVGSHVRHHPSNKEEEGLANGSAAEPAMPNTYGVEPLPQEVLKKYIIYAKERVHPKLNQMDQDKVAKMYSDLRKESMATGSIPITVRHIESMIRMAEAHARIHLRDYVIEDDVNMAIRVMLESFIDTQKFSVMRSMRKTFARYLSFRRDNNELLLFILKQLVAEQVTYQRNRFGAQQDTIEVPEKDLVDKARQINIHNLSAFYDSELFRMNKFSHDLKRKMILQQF
T1 sequence (P25205 whole entry, further chain): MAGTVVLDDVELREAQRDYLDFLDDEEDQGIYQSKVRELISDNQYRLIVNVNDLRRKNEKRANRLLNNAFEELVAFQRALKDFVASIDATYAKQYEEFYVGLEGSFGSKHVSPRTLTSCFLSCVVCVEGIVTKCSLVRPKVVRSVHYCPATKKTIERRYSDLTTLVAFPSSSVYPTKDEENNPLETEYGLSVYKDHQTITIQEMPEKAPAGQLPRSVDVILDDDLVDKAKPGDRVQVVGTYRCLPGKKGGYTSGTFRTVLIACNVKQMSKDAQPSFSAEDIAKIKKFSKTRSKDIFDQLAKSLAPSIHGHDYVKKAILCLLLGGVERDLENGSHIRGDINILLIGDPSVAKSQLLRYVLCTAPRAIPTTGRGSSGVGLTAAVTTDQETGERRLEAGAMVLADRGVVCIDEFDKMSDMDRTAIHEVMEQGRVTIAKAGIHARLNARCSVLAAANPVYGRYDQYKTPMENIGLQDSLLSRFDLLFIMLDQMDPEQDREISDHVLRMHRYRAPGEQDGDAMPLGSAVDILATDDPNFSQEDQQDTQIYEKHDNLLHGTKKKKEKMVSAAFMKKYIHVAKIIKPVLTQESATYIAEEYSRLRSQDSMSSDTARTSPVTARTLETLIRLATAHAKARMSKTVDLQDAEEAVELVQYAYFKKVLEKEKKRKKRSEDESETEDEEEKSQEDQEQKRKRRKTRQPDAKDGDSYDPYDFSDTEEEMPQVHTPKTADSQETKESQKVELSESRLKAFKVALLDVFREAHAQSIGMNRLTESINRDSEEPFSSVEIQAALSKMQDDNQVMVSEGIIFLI
T1 sequence (P33991 whole entry, further chain): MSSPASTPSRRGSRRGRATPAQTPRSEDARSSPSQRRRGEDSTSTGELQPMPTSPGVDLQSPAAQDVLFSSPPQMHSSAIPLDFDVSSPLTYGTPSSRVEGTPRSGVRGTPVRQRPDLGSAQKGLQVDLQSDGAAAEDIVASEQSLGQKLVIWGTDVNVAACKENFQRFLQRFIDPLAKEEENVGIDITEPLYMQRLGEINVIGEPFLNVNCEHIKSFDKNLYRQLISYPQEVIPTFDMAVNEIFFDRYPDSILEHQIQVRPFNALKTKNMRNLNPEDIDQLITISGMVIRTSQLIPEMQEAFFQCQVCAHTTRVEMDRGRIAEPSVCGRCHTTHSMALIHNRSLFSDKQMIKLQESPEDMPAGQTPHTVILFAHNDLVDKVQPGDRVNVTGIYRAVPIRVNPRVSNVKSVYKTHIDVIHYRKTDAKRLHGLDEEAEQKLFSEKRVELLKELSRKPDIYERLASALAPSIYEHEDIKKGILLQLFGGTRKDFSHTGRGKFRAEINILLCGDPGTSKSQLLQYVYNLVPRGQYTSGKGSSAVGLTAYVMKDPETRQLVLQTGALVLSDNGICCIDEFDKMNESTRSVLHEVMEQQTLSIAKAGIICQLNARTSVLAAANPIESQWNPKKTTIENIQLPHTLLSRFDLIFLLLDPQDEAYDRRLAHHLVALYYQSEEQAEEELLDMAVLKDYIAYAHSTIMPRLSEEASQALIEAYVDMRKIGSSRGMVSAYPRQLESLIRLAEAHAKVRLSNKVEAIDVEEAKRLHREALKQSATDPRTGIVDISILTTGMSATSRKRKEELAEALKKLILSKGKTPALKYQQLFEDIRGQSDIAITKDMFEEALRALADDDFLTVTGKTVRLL
T1 sequence (P33992 whole entry, further chain): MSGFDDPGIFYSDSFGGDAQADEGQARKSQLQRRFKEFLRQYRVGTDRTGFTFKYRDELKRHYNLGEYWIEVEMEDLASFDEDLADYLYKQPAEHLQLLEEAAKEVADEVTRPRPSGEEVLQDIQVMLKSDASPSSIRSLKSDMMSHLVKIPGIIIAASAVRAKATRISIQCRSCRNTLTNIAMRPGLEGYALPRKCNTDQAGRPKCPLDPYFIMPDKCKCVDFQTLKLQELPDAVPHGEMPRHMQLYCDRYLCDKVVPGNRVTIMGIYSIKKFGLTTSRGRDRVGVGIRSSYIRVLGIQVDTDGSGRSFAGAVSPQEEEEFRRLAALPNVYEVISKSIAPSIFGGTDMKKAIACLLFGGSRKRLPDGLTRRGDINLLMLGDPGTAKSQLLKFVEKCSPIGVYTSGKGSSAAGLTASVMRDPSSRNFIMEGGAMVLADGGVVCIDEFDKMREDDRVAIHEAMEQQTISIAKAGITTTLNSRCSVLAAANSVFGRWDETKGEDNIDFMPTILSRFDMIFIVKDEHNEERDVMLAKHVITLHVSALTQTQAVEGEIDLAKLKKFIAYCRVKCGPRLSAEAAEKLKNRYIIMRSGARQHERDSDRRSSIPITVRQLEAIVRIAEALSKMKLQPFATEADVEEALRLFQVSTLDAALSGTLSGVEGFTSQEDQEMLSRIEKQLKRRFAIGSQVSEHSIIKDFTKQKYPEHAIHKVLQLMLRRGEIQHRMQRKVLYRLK
T1 sequence (Q14566 whole entry, further chain): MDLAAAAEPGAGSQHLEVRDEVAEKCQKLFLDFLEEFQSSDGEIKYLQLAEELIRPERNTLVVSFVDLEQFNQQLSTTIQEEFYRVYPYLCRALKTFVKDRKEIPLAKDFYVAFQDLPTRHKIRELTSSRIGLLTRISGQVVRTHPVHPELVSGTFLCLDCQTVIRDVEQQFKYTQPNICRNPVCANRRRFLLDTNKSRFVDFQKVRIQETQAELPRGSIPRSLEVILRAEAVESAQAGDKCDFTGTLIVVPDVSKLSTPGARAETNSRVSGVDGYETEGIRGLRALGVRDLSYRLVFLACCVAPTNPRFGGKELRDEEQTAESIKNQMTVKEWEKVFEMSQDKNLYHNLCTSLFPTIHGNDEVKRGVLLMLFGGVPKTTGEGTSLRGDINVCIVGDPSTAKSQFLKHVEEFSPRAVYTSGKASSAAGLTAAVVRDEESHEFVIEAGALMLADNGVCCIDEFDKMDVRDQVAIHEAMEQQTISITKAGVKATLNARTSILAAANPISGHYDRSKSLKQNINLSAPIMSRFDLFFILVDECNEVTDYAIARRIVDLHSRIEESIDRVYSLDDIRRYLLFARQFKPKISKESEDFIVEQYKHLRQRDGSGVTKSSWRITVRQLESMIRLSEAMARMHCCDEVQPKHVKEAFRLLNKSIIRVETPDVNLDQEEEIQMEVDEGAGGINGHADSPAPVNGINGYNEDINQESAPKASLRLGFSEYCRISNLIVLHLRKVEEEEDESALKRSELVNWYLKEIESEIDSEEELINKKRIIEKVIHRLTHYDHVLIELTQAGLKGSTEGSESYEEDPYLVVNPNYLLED
T1 sequence (P33993 whole entry, further chain): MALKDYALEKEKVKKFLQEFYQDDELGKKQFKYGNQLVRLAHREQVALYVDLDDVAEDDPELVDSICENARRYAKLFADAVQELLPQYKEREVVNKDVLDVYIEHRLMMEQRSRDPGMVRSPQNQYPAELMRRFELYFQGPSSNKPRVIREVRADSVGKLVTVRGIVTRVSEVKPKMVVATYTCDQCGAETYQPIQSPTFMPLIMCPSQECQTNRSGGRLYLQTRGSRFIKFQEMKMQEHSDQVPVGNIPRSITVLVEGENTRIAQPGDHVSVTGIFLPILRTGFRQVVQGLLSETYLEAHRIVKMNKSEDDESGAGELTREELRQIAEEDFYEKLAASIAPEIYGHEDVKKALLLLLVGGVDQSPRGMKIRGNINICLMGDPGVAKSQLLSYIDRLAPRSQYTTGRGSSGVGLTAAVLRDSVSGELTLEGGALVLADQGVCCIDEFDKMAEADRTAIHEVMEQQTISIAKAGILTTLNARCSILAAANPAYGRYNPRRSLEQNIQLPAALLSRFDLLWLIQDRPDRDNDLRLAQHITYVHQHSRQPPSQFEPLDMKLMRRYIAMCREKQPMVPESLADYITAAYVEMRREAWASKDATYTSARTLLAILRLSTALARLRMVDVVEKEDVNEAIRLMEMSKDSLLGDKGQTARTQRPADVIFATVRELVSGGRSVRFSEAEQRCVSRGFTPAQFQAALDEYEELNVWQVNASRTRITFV

Row | human Topoisomerase-II inhibition (human Topoisomerase-II; 1 mM) | Compound | hCMG helicase inhibition in secondary strand-displacement assay ([1]; 500 μM compound) | inhibition of hCMG helicase activity, SAR set ([1]; 500 μM compound) | hCMG helicase activity inhibition ([1]; fork-unwinding, ~15 fmol hCMG, 0.5 mM ATP) [%] | mode of inhibition of hCMG helicase activity ([1]; role: inhibitor, CA1 2.5 μM, increasing ATP) | CA1 concentration required for human Topo-II inhibition relative to that required to block CMG activity (human Topoisomerase-II; decatenation assay in vitro) | human Topoisomerase-II inhibition (human Topoisomerase-II; low concentrations used in cell-based experiments) | DNA replication (BrdU), early G1 treatment (HaCaT cells) | DNA replication (BrdU), late-G1 treatment (HaCaT cells; treated at 12 hrs, assessed at 18 hrs) | DNA replication (BrdU), early S-phase treatment (HaCaT cells) | growth suppression of solid tumor cell lines [2]
1 | – | CO[C@@H]1[C@@H](OC(=O)c2ccc(C)[nH]2)[C@@H](O)[C@H](Oc2ccc3c(O)c(NC(=O)c4c[nH]c(C(=O)Nc5c(O)c6ccc(O[C@@H]7OC(C)(C)[C@H](OC)[C@@H](OC(=O)c8ccc(C)[nH]8)[C@H]7O)c(C)c6oc5=O)c4C)c(=O)oc3c2C)OC1(C)C [CA1] | effective hCMG helicase inhibitors | potently inhibit the hCMG | 100 | classic ATP-competitive mechanism | ~ 10 fold | no inhibitory effect on human Topoisomerase-II at low concentrations | inhibits DNA replication | fail to undergo DNA replication | effectively suppressed DNA replication | sensitive to similar low micromolar concentrations
2 | no effect at 1 mM | CO[C@@H]1[C@@H](OC(N)=O)[C@@H](O)[C@H](Oc2ccc3c(O)c(NC(=O)c4ccc(O)c(CC=C(C)C)c4)c(=O)oc3c2C)OC1(C)C [novobiocin] | – | only a small level of inhibition | – | – | – | – | little effect | – | did not | largely insensitive

— patent US20260306641A1, “HELICASE DEGRADERS” (priority 2023, published 2026)
